In patent US8367648B2, “Substituted 16,17-annellated steroid compounds for use in womens healthcare” (MSD OSS B.V., priority 2009, dated 2013):
Read-outs that look alike come from different tables or passages of the source.

Key:
[1] = biological target: T1, progesterone receptor B (PR-B) (Homo sapiens, UniProt P06401); test: In vitro nuclear receptor profile, PR-B agonism; format: cell-based
T1 sequence (P06401 1-933): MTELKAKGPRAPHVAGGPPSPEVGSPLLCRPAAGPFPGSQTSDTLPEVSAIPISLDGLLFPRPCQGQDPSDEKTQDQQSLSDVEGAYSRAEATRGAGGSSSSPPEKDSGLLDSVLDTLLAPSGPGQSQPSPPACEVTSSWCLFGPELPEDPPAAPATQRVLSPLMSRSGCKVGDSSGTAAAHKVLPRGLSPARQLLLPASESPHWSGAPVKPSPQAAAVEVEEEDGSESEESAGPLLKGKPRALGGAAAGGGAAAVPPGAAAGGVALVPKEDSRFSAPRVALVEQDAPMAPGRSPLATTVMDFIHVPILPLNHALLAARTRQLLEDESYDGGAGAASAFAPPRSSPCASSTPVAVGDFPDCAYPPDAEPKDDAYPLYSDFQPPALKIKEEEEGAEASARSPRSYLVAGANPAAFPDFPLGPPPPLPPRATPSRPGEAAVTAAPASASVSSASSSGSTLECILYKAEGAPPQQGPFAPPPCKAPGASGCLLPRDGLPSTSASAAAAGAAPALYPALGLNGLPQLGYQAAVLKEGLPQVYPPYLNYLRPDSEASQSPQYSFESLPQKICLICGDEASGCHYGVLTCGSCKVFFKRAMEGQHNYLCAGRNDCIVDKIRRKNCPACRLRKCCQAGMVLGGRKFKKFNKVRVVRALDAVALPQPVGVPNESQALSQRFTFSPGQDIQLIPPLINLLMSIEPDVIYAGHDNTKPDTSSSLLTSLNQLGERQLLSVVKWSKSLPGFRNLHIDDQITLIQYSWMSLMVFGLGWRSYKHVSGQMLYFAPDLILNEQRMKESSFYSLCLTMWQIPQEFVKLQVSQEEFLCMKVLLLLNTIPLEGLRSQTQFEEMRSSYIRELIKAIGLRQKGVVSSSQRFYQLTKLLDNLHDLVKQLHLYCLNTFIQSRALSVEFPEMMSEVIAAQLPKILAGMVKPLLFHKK

ovulation [2] = test: Ovulation inhibition in intact cycling female monkeys; format: in vivo, Macaca arctoides and Macaca fascicularis; conditions: 21 days once-a-day oral dosing in gelatine/mannitol
Method: The minimal active dose (MAD) for ovulation inhibition upon oral dosing in gelatine/mannitol was established at <=0.1 mg/kg per day.

androgen receptor (AR) = biological target: T2, androgen receptor (AR) (Homo sapiens, UniProt P10275); test: Androgen receptor antagonism in vitro; format: cell-based; conditions: antagonist; read-out: IC50 as antagonist for the androgen receptor (AR)
T2 sequence (P10275 1-920): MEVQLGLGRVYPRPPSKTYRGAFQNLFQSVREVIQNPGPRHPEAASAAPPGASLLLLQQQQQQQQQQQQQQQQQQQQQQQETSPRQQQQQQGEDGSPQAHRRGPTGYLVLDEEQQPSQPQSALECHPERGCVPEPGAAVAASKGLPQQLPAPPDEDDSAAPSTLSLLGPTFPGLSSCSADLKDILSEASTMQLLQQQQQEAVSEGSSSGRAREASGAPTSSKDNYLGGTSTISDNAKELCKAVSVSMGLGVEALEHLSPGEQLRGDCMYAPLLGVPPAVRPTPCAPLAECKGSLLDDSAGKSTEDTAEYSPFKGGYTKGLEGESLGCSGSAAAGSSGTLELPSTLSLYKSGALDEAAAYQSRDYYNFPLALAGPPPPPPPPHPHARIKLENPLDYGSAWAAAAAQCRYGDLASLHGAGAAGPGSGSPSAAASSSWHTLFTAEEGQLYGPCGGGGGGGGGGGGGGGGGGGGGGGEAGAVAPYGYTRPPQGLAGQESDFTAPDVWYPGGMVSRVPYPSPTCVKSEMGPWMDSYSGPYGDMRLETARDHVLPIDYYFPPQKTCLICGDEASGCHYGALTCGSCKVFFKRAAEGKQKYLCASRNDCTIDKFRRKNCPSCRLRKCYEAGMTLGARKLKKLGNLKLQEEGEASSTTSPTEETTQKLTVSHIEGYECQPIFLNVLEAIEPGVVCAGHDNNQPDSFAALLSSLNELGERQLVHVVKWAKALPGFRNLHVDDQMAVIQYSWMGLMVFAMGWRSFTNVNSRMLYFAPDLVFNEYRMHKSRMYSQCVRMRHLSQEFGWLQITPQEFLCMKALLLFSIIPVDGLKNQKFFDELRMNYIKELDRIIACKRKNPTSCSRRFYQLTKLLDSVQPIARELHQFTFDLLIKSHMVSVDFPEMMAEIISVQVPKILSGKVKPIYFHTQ

PR-A [3] = biological target: T3, PR-A (Homo sapiens, UniProt P06401); test: In vitro nuclear receptor profile, PR-A antagonism; format: cell-based; conditions: for PR-A ant anteff: antagonist efficacy; for IC50: antagonist mode, read-out: PR-A ant IC50
T3 sequence (P06401 1-769 isoform P06401-2): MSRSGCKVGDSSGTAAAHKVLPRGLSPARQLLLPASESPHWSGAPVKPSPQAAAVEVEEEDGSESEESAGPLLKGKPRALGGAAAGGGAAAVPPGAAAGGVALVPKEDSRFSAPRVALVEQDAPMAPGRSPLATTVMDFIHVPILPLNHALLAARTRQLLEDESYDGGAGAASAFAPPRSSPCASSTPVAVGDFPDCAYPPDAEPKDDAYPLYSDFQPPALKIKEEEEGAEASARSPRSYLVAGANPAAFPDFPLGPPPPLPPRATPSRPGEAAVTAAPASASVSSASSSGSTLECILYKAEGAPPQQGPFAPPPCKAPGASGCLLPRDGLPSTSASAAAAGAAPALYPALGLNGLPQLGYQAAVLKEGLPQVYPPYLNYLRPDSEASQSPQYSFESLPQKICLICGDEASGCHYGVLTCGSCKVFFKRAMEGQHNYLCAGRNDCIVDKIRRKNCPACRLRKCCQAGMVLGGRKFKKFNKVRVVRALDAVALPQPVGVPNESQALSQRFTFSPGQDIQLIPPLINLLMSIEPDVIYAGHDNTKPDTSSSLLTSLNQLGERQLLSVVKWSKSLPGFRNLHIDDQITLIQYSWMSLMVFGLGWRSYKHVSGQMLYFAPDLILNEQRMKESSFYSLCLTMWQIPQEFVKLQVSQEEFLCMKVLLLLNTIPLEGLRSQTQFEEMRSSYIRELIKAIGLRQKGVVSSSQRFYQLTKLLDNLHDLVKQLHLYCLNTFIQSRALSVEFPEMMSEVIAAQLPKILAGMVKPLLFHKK

ERα [4] = biological target: T4, ERα (Homo sapiens, UniProt P03372); test: In vitro nuclear receptor profile, ERα agonism; format: cell-based; conditions: for ERα ago eff: agonist efficacy
T4 sequence (P03372 1-595): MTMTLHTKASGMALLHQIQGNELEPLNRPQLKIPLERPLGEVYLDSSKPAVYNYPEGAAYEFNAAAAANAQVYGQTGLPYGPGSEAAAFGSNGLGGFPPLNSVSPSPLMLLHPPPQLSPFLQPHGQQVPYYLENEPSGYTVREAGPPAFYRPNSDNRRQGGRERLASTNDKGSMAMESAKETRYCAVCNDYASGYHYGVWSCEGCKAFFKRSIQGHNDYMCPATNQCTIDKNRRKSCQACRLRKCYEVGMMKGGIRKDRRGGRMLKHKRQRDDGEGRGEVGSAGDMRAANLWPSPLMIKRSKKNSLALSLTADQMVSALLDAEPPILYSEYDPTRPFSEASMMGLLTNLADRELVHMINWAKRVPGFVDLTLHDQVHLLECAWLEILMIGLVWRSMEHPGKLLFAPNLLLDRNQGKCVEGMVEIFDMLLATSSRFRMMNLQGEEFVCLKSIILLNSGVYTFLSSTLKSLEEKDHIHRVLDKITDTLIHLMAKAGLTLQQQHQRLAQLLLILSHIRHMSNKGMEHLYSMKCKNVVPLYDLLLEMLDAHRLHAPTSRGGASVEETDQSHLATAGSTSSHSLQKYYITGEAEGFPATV

Solubility in water = format: physicochemical; conditions: in comparison to Org 41621
Source text: As the diseases in which the compounds can be used are in the area of women's health care the vaginal route of administration is also contemplated. A medicine can be formulated in the form of a device for vaginal drug delivery such as in admixture with a flexible polymer for a removable intrauterine device or a removable vaginal device, for example in the form of a ring. Polymers or other additives can also be used for a parenteral implant, such as a subcutaneous implant for extended release of a drug according to the invention. As such, extended release formulations or other formulations aimed at particular absorption profiles are also within the scope of the invention. […] This offers an advantage for uses in the manufacture of medicines wherein higher solubility is desirable, such as a drinkable or injectable formulation.

bone mineral density = test: AOST BMD (rat); format: in vivo
ERβ [5] = biological target: T5, ERβ (Homo sapiens, UniProt Q92731); test: In vitro nuclear receptor profile, ERβ agonism; format: cell-based; conditions: agonist mode; read-out: ERβ ago EC50
T5 sequence (Q92731 whole entry): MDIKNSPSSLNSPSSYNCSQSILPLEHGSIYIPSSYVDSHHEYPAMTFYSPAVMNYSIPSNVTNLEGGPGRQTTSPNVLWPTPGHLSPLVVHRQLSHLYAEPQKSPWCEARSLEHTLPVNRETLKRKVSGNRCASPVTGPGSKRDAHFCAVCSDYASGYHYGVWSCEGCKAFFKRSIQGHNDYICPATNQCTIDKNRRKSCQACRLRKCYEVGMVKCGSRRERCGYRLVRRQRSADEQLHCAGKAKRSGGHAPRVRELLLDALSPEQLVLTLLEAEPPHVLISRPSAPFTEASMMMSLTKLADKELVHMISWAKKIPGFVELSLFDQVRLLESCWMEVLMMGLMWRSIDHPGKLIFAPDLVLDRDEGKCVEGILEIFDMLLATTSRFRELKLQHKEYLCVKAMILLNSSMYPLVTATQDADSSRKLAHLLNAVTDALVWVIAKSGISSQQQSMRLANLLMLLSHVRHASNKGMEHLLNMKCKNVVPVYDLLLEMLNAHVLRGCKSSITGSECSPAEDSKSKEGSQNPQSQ

PR-A [6] = biological target: T3, PR-A; test: In vitro nuclear receptor profile, PR-A agonism; format: cell-based; conditions: for EC50: agonist mode, read-out: PR-A ago EC50
ERβ [7] = biological target: T5, ERβ; test: In vitro nuclear receptor profile, ERβ antagonism; format: cell-based; conditions: for ERβ ant anteff: antagonist efficacy; for IC50: antagonist mode, read-out: ERβ ant IC50
[8] = Embryofetal toxicity study in pregnant rats
endometrium = test: 4-week phase I study, plasma exposure and endometrial biopsies; format: in vivo, human; conditions: biopsies on day 29, female human volunteers
[9] = as above; format: in vivo, human; conditions: plasma; female human volunteers; formed by metabolism from oral 10 mg daily Org 41621, 4 weeks; read-out: blood plasma level Cmax
[10] = tested on: estrogen receptors in the CNS; test: Lordosis model (facilitation of female sexual behaviour); format: in vivo
ERα [11] = biological target: T4, ERα; test: In vitro nuclear receptor profile, ERα antagonism; format: cell-based
[12] = tested on: LH/FSH, uterine tissue, vaginal tissue, cholesterol metabolism, bone; test: 4-week multiple dose study in ovariectomized female rats; format: in vivo, rat
vaginal tissue = test: Allen-Doisy (rat); format: in vivo
ovulation [13] = test: Ovulation inhibition in intact cycling female rats; format: in vivo, rat
[14] = biological target: T1, progesterone receptor B (PR-B); test: In vitro nuclear receptor profile, PR-B antagonism; format: cell-based; conditions: for PR-B ant anteff: antagonist efficacy; for IC50: antagonist mode, read-out: PR-B ant IC50
[15] = rat, in vivo

Structure (SMILES): CCC[C@@H]1Cc2cc(O)ccc2[C@H]2CC[C@@]3(C)[C@@H](C[C@H]4CCC(=O)C[C@]43O)[C@H]12 [Compound 10, (7α,16β,17α)-3,17-dihydroxy-7-propyl-16,24-cyclo-19,21-dinorchola-1,3,5(10)-trien-22-one]
- PR-B ago eff ([1]; agonist efficacy): 0.49
- activity at PR-B in words ([1]; nanomolar activity): partial (ant)agonist
- EC50 ([1]; read-out: EC50 for progesterone receptor B (PR-B)): 3.8 nM
- minimal active dose (MAD) for ovulation inhibition (ovulation [2]): <= 0.1 mg/kg per day
- IC50 (androgen receptor (AR)): 125 nM
- PR-A ant anteff (PR-A [3]): 0.54
- IC50 (PR-A [3]): 27 nM
- solubility in water (Solubility in water): very well soluble in water
- AOST BMD (rat) MAD p.o. (bone mineral density): 0.12 mg/kg · day
- EC50 (ERβ [5]): > 10000 nM
- PR-A ago eff (PR-A [6]; agonist efficacy): 0.46
- EC50 (PR-A [6]): 30 nM
- activity at PR-A in words (PR-A [6]; nanomolar activity): partial (ant)agonist
- activity at ERβ in words (ERβ [7]): full antagonist
- ERβ ant anteff (ERβ [7]): 0.83
- IC50 (ERβ [7]): 8.4 nM
- minor defects (wavy ribs) incidence ([8]; 0.1 mg/kg): 4/153
- major fetal defects ([8]; treated groups): No major defects
- endometrial histopathology scores (endometrium): mostly atrophic or inactive endometrium
- endometrial hyperplasia (endometrium): no signs of hyperplasia
- Cmax [9]: 16 nM
- Lordosis (rat) MAD p.o. ([10]; p.o.): 0.14 mg/kg · day
- response in the lordosis model ([10]; rat): near full agonist response
- ERα ant anteff (ERα [11]; antagonist efficacy): 0.47
- behaviour on vaginal tissue, cholesterol metabolism and bone (bone mineral density, osteocalcin) [12]: behaves as an estrogen receptor agonist
- circulating levels of LH and FSH ([12]; 4 weeks, oral and subcutaneous in gelatine/mannitol): effectively suppress
- stimulation of rat uterine tissue (uterine weight) ([12]; daily oral dosing for 4 weeks, FIG. 1): only mildly stimulates
- Allen-Doisy (rat) MAD p.o. (vaginal tissue): 0.15 mg/kg · day
- minimal active dose (MAD) to inhibit ovulation (ovulation [13]; intact regularly cycling female rats): 0.1 mg/kg per day
- Ovulation Inhibition (rat) MAD p.o. (ovulation [13]; rat, p.o.): 0.10 mg/kg · day
- PR-B ant anteff [14]: 0.55
- IC50 [14]: 3.7 nM
- dosages inducing early resorptions ([15]; female, po): > 0.3 mg/kg
- post implantation loss ([15]; female, po, 0.3 mg/kg): approx. 80%
- fetal effects ([15]; 0.3 mg/kg): No effects
- teratogenicity ([15]; 0.3 mg/kg): no evidence of teratogenicity

Structure (SMILES): CCC[C@@H]1Cc2cc(O)ccc2[C@H]2CC[C@@]3(C)[C@@H](C[C@H]4CC[C@H](O)C[C@]43O)[C@H]12 [Org 41621, (7α,16β,17α,22β)-7-propyl-16,24-cyclo-19,21-dinorchola-1,3,5(10)-triene-3,17,22-triol, reference compound]
- EC50 ([1]; agonist mode, read-out: PR-B ago EC50): > 100 nM
- PR-A ant anteff (PR-A [3]): 0.85
- IC50 (PR-A [3]): 58.3 nM
- ERα ago eff (ERα [4]): 0.95
- EC50 (ERα [4]; agonist mode, read-out: ERα ago EC50): 0.28 nM
- EC50 (ERβ [5]): > 100 nM
- EC50 (PR-A [6]): > 100 nM
- ERβ ant anteff (ERβ [7]): 0.89
- IC50 (ERβ [7]): 3.8 nM
- IC50 (ERα [11]; antagonist mode, read-out: ERα ant IC50): > 1000 nM
- PR-B ant anteff [14]: 0.74
- IC50 [14]: 20.8 nM
- major fetal abnormalities (ribs, humerus, scapula) ([15]; female, po, 0.09 mg/kg): 3/273
- post implantation loss ([15]; female, po, 0.09 mg/kg): 15%
- major fetal abnormalities (ribs, humerus, scapula) ([15]; female, po, 0.15 mg/kg): 11/216
- post implantation loss ([15]; female, po, 0.15 mg/kg): 24%
